Results taken from US20010041706A1, “Blockade of taxane metabolism” (priority 2000, published 2001).

Assays:
CYP2C8 = target: T1, CYP2C8 (Homo sapiens, UniProt P10632); details: previously reported; cited from earlier work
T1 sequence (P10632 1-490): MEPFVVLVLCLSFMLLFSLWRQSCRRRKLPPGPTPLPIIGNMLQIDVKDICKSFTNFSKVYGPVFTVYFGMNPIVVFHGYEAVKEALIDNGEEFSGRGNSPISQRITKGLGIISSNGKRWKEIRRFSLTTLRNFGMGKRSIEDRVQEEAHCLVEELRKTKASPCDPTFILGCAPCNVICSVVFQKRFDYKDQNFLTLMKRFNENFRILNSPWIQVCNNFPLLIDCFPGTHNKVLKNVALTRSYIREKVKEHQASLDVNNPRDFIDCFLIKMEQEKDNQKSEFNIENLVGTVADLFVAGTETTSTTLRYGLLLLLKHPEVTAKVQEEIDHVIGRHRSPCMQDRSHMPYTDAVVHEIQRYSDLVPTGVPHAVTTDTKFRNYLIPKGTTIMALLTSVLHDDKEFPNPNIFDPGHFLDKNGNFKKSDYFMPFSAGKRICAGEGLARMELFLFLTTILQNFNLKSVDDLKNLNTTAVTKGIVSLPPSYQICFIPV

[1] = target: T2, cytochrome P450 2C8 (CYP2C8) (Homo sapiens, UniProt P10632); details: hepatocytes
T2 sequence (P10632 1-490): T1 sequence (P10632 1-490)

paclitaxel metabolism [2] = details: Jamis-Dow et al., Am J. Clin. Oncol. 1997; cited from earlier work
paclitaxel metabolism [3] = experiment: Paclitaxel metabolism in primary human hepatocytes, overall; format: cell-based; details: second experiment (FIG. 4), highest concentration tested (50 μM), 24 hours
[4] = Quercetin levels in mouse liver after oral dose (HPLC); format: in vivo; details: mice receiving oral quercetin 1000 mg/kg
Method: Quercetin twelve hours prior to paclitaxel had no effect on system exposure. […] The peak levels of quercetin measured in the livers of mice receiving oral supplementation were approximately 15 μM, and occurred between 8 and 12 hours after the dose.

[5] = target: cytochrome P450 3A4 (CYP3A4) (Homo sapiens, UniProt P08684); details: hepatocytes
cytochrome P450 3A4 (CYP3A4), sequence (P08684 whole entry): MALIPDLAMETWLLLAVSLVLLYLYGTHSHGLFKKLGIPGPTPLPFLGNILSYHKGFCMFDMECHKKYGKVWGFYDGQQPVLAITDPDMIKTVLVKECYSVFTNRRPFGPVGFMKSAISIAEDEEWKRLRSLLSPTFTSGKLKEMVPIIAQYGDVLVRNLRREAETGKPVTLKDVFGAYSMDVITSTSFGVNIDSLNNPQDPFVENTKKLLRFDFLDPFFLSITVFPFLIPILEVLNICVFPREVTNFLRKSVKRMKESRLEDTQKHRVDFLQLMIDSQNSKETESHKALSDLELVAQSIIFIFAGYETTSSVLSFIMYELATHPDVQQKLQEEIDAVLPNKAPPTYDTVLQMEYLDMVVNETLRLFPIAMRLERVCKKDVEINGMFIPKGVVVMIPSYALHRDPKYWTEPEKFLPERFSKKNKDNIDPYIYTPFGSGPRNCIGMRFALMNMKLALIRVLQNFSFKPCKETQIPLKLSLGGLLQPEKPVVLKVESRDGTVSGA

Row | peak levels of quercetin measured in the livers [4] | inhibition of paclitaxel metabolism by CYP3A4 [5] | Compound | inhibition of the metabolism of paclitaxel by CYP2C8 (CYP2C8) | inhibition of paclitaxel metabolism by CYP2C8 [1] | inhibition of paclitaxel metabolism in humans (paclitaxel metabolism [2]) | effect on paclitaxel metabolism (paclitaxel metabolism [3])
1 |  |  | O=c1c(O)c(-c2ccc(O)cc2)oc2cc(O)cc(O)c12 [kaempherol] | selectively inhibit |  |  | 
2 |  |  | CC(=O)N1CCN(c2ccc(OCC3COC(Cn4ccnc4)(c4ccc(Cl)cc4Cl)O3)cc2)CC1 (stereo not drawn) [ketoconazole] |  | concentration-dependent manner | unable to inhibit paclitaxel metabolism | 
3 |  |  | O=C1C[C@@H](c2ccc(O)cc2)Oc2cc(O)cc(O)c21 [naringenin] | selectively inhibit |  |  | 
4 | approximately 15 μM | concentration-dependent manner | O=c1c(O)c(-c2ccc(O)c(O)c2)oc2cc(O)cc(O)c12 [quercetin] | selectively inhibit | concentration-dependent manner |  | modest effect
